Experiment [1] concerns MRSA-1 (clinical isolate). As to the kind of experiment: MIC broth microdilution, MRSA-1. The format is cell-based, Staphylococcus aureus. The settings on record: Staphylococcus aureus, MRSA; overnight incubation, Mueller-Hinton broth; read-out: MIC MRSA-1 (clinical isolate). On the procedure:
(§1) Antibacterial activity: The compounds were tested for the minimum inhibitory concentrations (MIC), which is the lowest concentration of a chemical required to inhibit visible microbial growth following overnight incubation. MIC values were determined using broth microdilution method according to the Clinical and Laboratory Standards Institute guidelines (CLSI, 2015, M07-A10). Mueller-Hinton broth was used as a culture medium in all the experiments. Exponentially growing bacterial cells were prepared in Mueller-Hinton broth at a concentration of approximately 5×10^5 CFU/mL. Two-fold serial dilutions of the test compound (8 concentrations ranged between 100-0.78 μg/mL) were tested. […] In each experiment, solvent (DMSO) was used as a negative control, un-treated control (composing of bacteria in Mueller-Hinton broth) was used as a growth control, blank (culture media alone) was used as sterility control. The 96-well microplate with the test compounds was incubated overnight at 37° C. Turbidity in wells indicated bacterial growth.
(§2) The compounds were tested on six MDR Gram-positive bacteria including three clinical isolates of methicillin-resistant Staphylococcus aureus (MRSA-1, MRSA-2 and MRSA-3) and three reference MRSA strains (ATCC33591, ATCC33592 and ATCC700699). They were also tested on three MDR Gram-negative bacteria including New Delhi metallo-beta-lactamase (NDM-1) positive, carbapenem-resistant E. coli (ATCC BAA2469), extended-spectrum beta-lactamase (ESBL) producing, colistin-resistant E. coli (CDC-AR-0346) and carbapenem-resistant Acinetobacter baumannii (ATCC BAA1605), in addition to two non-MDR bacteria from the same species, namely E. coli (ATCC 25922) Acinetobacter baumannii (ATCC 19606).

Experiment [2] relates to MRSA-2 (clinical isolate). The experiment is described as follows: MIC broth microdilution, MRSA-2. The conditions noted are these: Staphylococcus aureus, MRSA; overnight incubation, Mueller-Hinton broth; read-out: MIC MRSA-2 (clinical isolate). It is filed as cell-based, Staphylococcus aureus. On the procedure:
as §1, §2

In experiment [3] the test system is MRSA-3 (clinical isolate). The experiment is described as follows: MIC broth microdilution, MRSA-3. It is filed as cell-based, Staphylococcus aureus. The settings on record: Staphylococcus aureus, MRSA; overnight incubation, Mueller-Hinton broth; read-out: MIC MRSA-3 (clinical isolate). On the procedure: as §1, §2
Experiment [4] deals with MRSA-ATCC33591. As to the kind of experiment: MIC broth microdilution, MRSA ATCC33591. It is filed as cell-based, Staphylococcus aureus. The settings on record: Staphylococcus aureus; overnight incubation, Mueller-Hinton broth; read-out: MIC MRSA-ATCC33591. On the procedure: as §1, §2
Experiment [5] deals with MRSA-ATCC33592. As to the kind of experiment: MIC broth microdilution, MRSA ATCC33592. The settings on record: Staphylococcus aureus; overnight incubation, Mueller-Hinton broth; read-out: MIC MRSA-ATCC33592. It is filed as cell-based, Staphylococcus aureus. On the procedure: as §1, §2
In experiment [6] the test system is MRSA-ATCC700699 (VISA). The experiment is described as follows: MIC broth microdilution, MRSA ATCC700699 (VISA). The conditions noted are these: Staphylococcus aureus; strain intermediately resistant to vancomycin; overnight incubation; read-out: MIC MRSA-ATCC700699 (VISA). It is filed as cell-based, Staphylococcus aureus. The protocol:
as §1, §2

In experiment [7] the test system is E. coli ATCC25922. As to the kind of experiment: MIC broth microdilution, E. coli ATCC25922. The format is cell-based, Escherichia coli. The conditions noted are these: Escherichia coli, ATCC25922; not MDR; overnight incubation. On the procedure: as §1, §2
Experiment [8] has as its system E. coli ATCC BAA2469 (NDM-1 carbapenem-resistant). The experiment is described as follows: MIC broth microdilution, E. coli ATCC BAA2469. The format is cell-based, Escherichia coli. The settings on record: Escherichia coli, ATCCBAA2469, MDR; overnight incubation. The protocol:
as §1, §2

Experiment [9] has as its system E. coli CDC-AR-0346 (ESBL, colistin resistant). The experiment is described as follows: MIC broth microdilution, E. coli CDC-AR-0346. It is filed as cell-based, Escherichia coli. The conditions noted are these: Escherichia coli; MDR; overnight incubation. On the procedure:
as §1, §2

Experiment [10] concerns Acinetobacter baumannii ATCC 19606. The experiment is described as follows: MIC broth microdilution, A. baumannii ATCC 19606. It is filed as cell-based. The conditions noted are these: Acinetobacter baumannii, ATCC19606; not MDR; overnight incubation. On the procedure: as §1, §2
The subject of experiment [11] is Acinetobacter baumannii ATCC BAA1605 (carbapenem-resistant). The experiment is described as follows: MIC broth microdilution, A. baumannii ATCC BAA1605. It is filed as cell-based. The settings on record: Acinetobacter baumannii, ATCCBAA1605, MDR; overnight incubation. The protocol: as §1, §2
In experiment [12] the test system is 6 MRSA strains. The experiment is described as follows: MIC, panel of 6 MRSA strains. It is filed as cell-based. The settings on record: Staphylococcus aureus, across the panel of tested Gram-positive strains, read-out: MIC against all the 6 MRSA strains. The protocol:
as §1, §2

Experiment [13] relates to MDR E. coli strains. As to the kind of experiment: MIC, both MDR E. coli strains. The format is cell-based. The conditions noted are these: Escherichia coli, ATCCBAA2469; across ATCC BAA2469 and CDC-AR-0346. The protocol: as §1
The compounds were tested on six MDR Gram-positive bacteria including three clinical isolates of methicillin-resistant Staphylococcus aureus (MRSA-1, MRSA-2 and MRSA-3) and three reference MRSA strains (ATCC33591, ATCC33592 and ATCC700699). […]

≈ marks a conversion by molar mass, not a printed value. Where only a bound is given, the exact number is not on record here.

From US11286258B2, “Nature-inspired anticancer and antibacterial motifs and pharmaceutical composition thereof” (University of Sharjah, priority 2020, dated 2022) come the findings set out here.

With `NCC[C@H](O)C(=O)N[C@@H]1C[C@H](N)[C@@H](O[C@H]2O[C@H](CN)[C@@H](O)[C@H](O)[C@H]2O)[C@H](O)[C@H]1O[C@H]1O[C@H](CO)[C@@H](O)[C@H](N)[C@H]1O` [Amikacin, reference compound], the minimal inhibitory concentration (MIC) in [1] was determined as 16 µg/mL (≈ 27.3 µM); in [2], 8 µg/mL (≈ 13.7 µM); in experiment [3], 2 µg/mL (≈ 3.42 µM); in [4] it was 50 µg/mL (≈ 85.4 µM); in experiment [5], 50 µg/mL (≈ 85.4 µM); in experiment [6], 100 µg/mL (≈ 171 µM). In addition, the MIC in experiment [7] was 2.5 µg/mL (≈ 4.27 µM); in experiment [8] it was greater than 1000 µg/mL; in experiment [9], greater than 1000 µg/mL; in experiment [10], 10 µg/mL (≈ 17.1 µM); in experiment [11] it was 1.25 µg/mL (≈ 2.13 µM); in experiment [12], 2 to 100 µg/mL (≈ 3.42 to 171 µM). In [13], this compound had an MIC greater than 1000 µg/mL.
In the case of `O=C(O)c1cn(C2CC2)c2cc(N3CCNCC3)c(F)cc2c1=O` [Ciprofloxacin, reference compound], the MIC was 0.3 µg/mL (≈ 0.905 µM) in experiment [4]; 0.3 µg/mL (≈ 0.905 µM) in experiment [5]; less than 0.02 µg/mL in experiment [7]; 100 µg/mL (≈ 302 µM) in experiment [8]; 0.625 µg/mL (≈ 1.89 µM) in experiment [10]; 50 µg/mL (≈ 151 µM) in [11]. The MIC fell in the range of 0.3 to 32 µg/mL (≈ 0.905 to 96.6 µM) in experiment [12] and 16 to 100 µg/mL (≈ 48.3 to 302 µM) in [13].
